Results on 6 compounds are retold here after patent EP2103618A1, “Novel ansamitocin derivatives” (Leibniz Universität Hannover, priority 2008, dated 2009).

In brackets after ≈: the same amount, converted by molar mass.

What all share (format): cell-based
For assay [1], the system named is cultured human tumor cell lines. In words: Growth inhibition, statements across the whole panel of cell lines. Conditions: for activity among the compounds tested: in general, across the cell lines, result in words. The method, then:
(§1) For the detailed evaluation of their biological profile as anti-cancer agents, cultured human tumor cell lines were treated with the new ansamitocin derivatives. In particular, the 19-fluoro-20-demethoxyansamitocin P3 (F-A), 19-chloro-20-demethoxyansamitocin P3 (Cl-A), 19-bromo-20-demethoxyansamitocin P3 (Br-A), and the 20-demethoxy-19-vinylansamitocin P3 (VI) were tested for their inhibitory effect on cell growth of different cell lines, namely KB-3-1, U-937, PC-3, SK-OV-3, A-498, A-431, and A-549, in comparison to natural biosynthesis product Ansamitocin P-3 (AP-3). Growth inhibition was measured in microtiter plates. 60 µl of serial dilutions of the test compounds were added to aliquots of 120 µl of the suspended cells (50000/ml). After 5 days the growth was determined using a MTT assay, except for U-937, where the WST-1 assay from Roche was employed.

Assay [2] has as its system A-431. The experiment in a line: Growth inhibition of cultured human tumor cell lines in microtiter plates, MTT assay. The conditions noted are these: A-431, Epidermoid carcinoma, 5 days; for IC50: Homo sapiens, 120 h, read-out: Antiproliferative activity IC50. Here is the method:
as §1
(Tetrazolium assays rely on reduction of a dye to a coloured formazan, in cell work by metabolically active cells.)

Assay [3] relates to A-498. The description is as above. Conditions: A-498, Kidney carcinoma, 5 days; for IC50: Homo sapiens, A498, 120 h, read-out: Antiproliferative activity IC50. Here is the method: as §1
Assay [4] deals with A-549. The assay is described as above. Conditions: A-549, Lung carcinoma, 5 days; for IC50: Homo sapiens, A549, 120 h, read-out: Antiproliferative activity IC50. Here is the method: as §1
In assay [5] the test system is KB-3-1. The assay is described as above. The conditions noted are these: KB-3-1, Cervix carcinoma, 5 days; for IC50: Homo sapiens, 120 h, read-out: Antiproliferative activity IC50. Here is the method: as §1
Assay [6] relates to PC-3. The assay is described as above. The conditions noted are these: PC-3, Prostate carcinoma, 5 days; for IC50: Homo sapiens, 120 h, read-out: Antiproliferative activity IC50. Here is the method: as §1
The subject of assay [7] is SK-OV-3. The assay is described as above. The conditions noted are these: SK-OV-3, Ovarian carcinoma, 5 days; for IC50: Homo sapiens, 120 h, read-out: Antiproliferative activity IC50. Here is the method:
as §1

For assay [8], the system named is U-937. In words: Growth inhibition of cultured human tumor cell lines in microtiter plates, WST-1 assay. Conditions: U-937, Lymphoma, 5 days; for IC50: Homo sapiens, 120 h, read-out: Antiproliferative activity IC50. The method, then:
as §1

What is called IC50 is the concentration needed to halve the response being measured.

For “19-fluoro-20-demethoxyansamitocin P3 [F-A]”, in assay [1], the “activity among the compounds tested” value was “most active”.

Regarding 20-demethoxy-19-vinylansamitocin P3, the “activity among the compounds tested” value in assay [1] is reported as “most active”.

Turning to `COc1cc2cc(c1Cl)N(C)C(=O)C[C@H](OC(=O)C(C)C)[C@]1(C)O[C@H]1[C@H](C)[C@@H]1C[C@@](O)(NC(=O)O1)[C@H](OC)/C=C/C=C(\C)C2` [AP-3, Ansamitocin P-3, reference compound], the IC50 in assay [2] was 0.05 ng/mL (≈ 0.0787 nM); in assay [3] it was 1.1 ng/mL (≈ 1.73 nM); in assay [4], 0.1 ng/mL (≈ 0.157 nM); in assay [5], 0.11 ng/mL (≈ 0.173 nM); in assay [6] it was 0.035 ng/mL (≈ 0.0551 nM); in assay [7], 0.03 ng/mL (≈ 0.0472 nM). Besides, in assay [8], the IC50 came out at 0.0035 ng/mL (≈ 0.00551 nM).

Take `CO[C@@H]1/C=C/C=C(\C)Cc2ccc(Br)c(c2)N(C)C(=O)C[C@H](OC(=O)C(C)C)[C@]2(C)O[C@H]2[C@H](C)[C@@H]2C[C@@]1(O)NC(=O)O2` [Br-A, 19-bromo-20-demethoxyansamitocin P3]: the “Antiproliferative activity IC50” value in assay [2] is listed as 0.1 ng/mL; in assay [3] it was 4 ng/mL; in assay [4] it was 0.3 ng/mL; in assay [5], 0.3 ng/mL; in assay [6], 0.1 ng/mL; in assay [7], 0.05 ng/mL. For the same compound, the “Antiproliferative activity IC50” value in assay [8] is given as 0.03 ng/mL.

Consider `CO[C@@H]1/C=C/C=C(\C)Cc2ccc(Cl)c(c2)N(C)C(=O)C[C@H](OC(=O)C(C)C)[C@]2(C)O[C@H]2[C@H](C)[C@@H]2C[C@@]1(O)NC(=O)O2` [Cl-A, 19-chloro-20-demethoxyansamitocin P3], for which the IC50 stood at 0.15 ng/mL (≈ 0.248 nM) in assay [2]; 3 ng/mL (≈ 4.96 nM) in assay [3]; 0.4 ng/mL (≈ 0.661 nM) in assay [4]; 0.35 ng/mL (≈ 0.578 nM) in assay [5]; 0.12 ng/mL (≈ 0.198 nM) in assay [6]; 0.1 ng/mL (≈ 0.165 nM) in assay [7]. Moreover, the half-inhibitory concentration (IC50) in assay [8] stood at 0.035 ng/mL (≈ 0.0578 nM). The “activities weaker than that of the natural AP-3” value in assay [1] is 3-50 times.

In the case of `CO[C@@H]1/C=C/C=C(\C)Cc2ccc(F)c(c2)N(C)C(=O)C[C@H](OC(=O)C(C)C)[C@]2(C)O[C@H]2[C@H](C)[C@@H]2C[C@@]1(O)NC(=O)O2` [F-A, 19-fluoro-20-demethoxyansamitocin P3], the IC50 in assay [2] is 0.04 ng/mL (≈ 0.0679 nM); in assay [3], 2 ng/mL (≈ 3.4 nM); in assay [4], 0.11 ng/mL (≈ 0.187 nM); in assay [5], 0.18 ng/mL (≈ 0.306 nM); in assay [6], 0.035 ng/mL (≈ 0.0595 nM); in assay [7], 0.035 ng/mL (≈ 0.0595 nM). In addition, in assay [8], the IC50 amounted to 0.01 ng/mL (≈ 0.017 nM).
